Experimental data from patent US20050159352A1, “Use of monocarboxylate transporter protein for thyroid hormone transport” (priority 2002, published 2005).
Where two headings read alike, the source gives them in different places.

What was measured:
[1] = biological target: T1, MCT8 (Rattus norvegicus, UniProt Q8K1P8, G227D/I169T/S199P/T171I); assay: Transport kinetics of MCT8-mediated iodothyronine uptake in oocytes (Michaelis-Menten); design: dose or concentration left out as unconfirmed; details: net transport
T1 sequence (Q8K1P8 whole entry I169T/T171I/S199P/G227D): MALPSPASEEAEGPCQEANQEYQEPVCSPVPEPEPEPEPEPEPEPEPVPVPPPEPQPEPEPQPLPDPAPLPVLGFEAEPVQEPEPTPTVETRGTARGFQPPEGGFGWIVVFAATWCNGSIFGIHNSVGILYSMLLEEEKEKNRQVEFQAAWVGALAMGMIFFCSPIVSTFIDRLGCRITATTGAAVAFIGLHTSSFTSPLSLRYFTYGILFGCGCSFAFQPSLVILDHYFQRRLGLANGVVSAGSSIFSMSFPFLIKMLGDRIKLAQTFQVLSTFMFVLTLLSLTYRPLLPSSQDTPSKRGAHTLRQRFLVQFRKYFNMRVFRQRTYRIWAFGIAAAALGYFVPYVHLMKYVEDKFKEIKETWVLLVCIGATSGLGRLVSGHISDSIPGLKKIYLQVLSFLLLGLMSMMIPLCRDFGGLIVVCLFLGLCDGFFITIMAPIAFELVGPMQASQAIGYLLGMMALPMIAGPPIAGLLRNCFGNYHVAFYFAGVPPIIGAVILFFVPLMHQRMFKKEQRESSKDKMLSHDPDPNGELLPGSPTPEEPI
Protocol: Apparent Km values were calculated by fitting the plot of uptake rate (v) versus ligand concentration (5) to the Michaelis Menten equation: v=Vmax/(1+Km/S), wherein Vmax is the maximum uptake rate, and Km the Michaelis constant. Calculations were performed using the Slide Write Plus program version 5.01 (Advanced Graphics Software).

[2] = biological target: T2, rat MCT1 (Rattus norvegicus, UniProt P53987); details: data not shown
T2 sequence (P53987 1-494): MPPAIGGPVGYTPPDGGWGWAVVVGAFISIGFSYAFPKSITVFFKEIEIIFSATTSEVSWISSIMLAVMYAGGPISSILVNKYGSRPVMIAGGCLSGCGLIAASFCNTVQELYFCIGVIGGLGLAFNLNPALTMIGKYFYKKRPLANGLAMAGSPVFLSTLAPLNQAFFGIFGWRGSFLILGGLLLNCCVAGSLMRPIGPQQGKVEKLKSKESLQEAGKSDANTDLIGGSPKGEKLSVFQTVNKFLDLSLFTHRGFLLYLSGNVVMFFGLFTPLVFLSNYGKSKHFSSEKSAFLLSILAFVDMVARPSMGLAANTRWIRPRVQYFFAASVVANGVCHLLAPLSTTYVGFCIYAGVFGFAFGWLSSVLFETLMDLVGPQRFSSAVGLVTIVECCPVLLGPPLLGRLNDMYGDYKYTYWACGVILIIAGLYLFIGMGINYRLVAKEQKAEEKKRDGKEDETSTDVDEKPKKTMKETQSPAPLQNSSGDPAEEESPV

[3] = biological target: T1, MCT8; assay: Inhibition of uptake of labeled T4 and T3 in MCT8 cRNA-injected oocytes by putative competitors; type: cell-based; design: the stop codon of MCT8 was removed by performing PCR using the same sense primer as above; expressed in transfected cells; host or cells: Xenopus laevis oocytes injected with cRNA transcribed from pGEM-HeJuel
Protocol: (§1) Oocytes were isolated and allowed to recover overnight at 18 C in modified Barth's solution containing 20 IU/ml penicillin and 20 gg/ml streptomycin as described before (23). […] Uninjected or water injected oocytes were used as controls.
Transport measurements in oocytes—Oocytes were washed and preincubated at 18 C in standard uptake solution (100 mM NaCl, 2 mM KCl, 1 mM CaCl2, 1 mM MgCl2, 10 mM HEPES, and 10 mM Tris, pH 7.5). […] The possible Na^+ dependence of transport was tested by preincubation and incubation in Na^+-free uptake solution in which NaCl was replaced by choline chloride. The influence of the temperature on the uptake rate was tested by the incubation of oocytes with uptake solutions at different temperatures between 4 and 37 C. […] The incubation was stopped by aspiration of the medium, and oocytes were washed 4 times at 4 C with standard uptake solution containing 0.1% BSA.

[4] = biological target: T1, MCT8; assay: Transport (uptake) of radioactive ligands by MCT8 expressed in X. laevis oocytes; type: cell-based; design: the stop codon of MCT8 was removed by performing PCR using the same sense primer as above; expressed in transfected cells; host or cells: Xenopus laevis oocytes injected with cRNA transcribed from pGEM-HeJuel
Protocol: Xenopus oocytes were isolated and injected with 4.6 ng rat MCTS cRNA. After 3 days, groups of 10 injected or uninjected oocytes were incubated for 60 mm at 25 C with 10 nM radioactive iodothyronines in 0.1 ml medium. Uptake of iodothyronines was determined as previously described (18).
as §1
Transport measurements in oocytes—Oocytes were washed and preincubated at 18 C in standard uptake solution (100 mM NaCl, 2 mM KCl, 1 mM CaCl2, 1 mM MgCl2, 10 mM HEPES, and 10 mM Tris, pH 7.5). Usually, transport was tested by incubation of groups of 5-10 oocytes for 2-60 mm at 25 C with 10 nM [1251]iodothyronines or 10 μM [3H]amino acids in 0.1 ml standard uptake solution. The possible Na^+ dependence of transport was tested by preincubation and incubation in Na^+-free uptake solution in which NaCl was replaced by choline chloride. The influence of the temperature on the uptake rate was tested by the incubation of oocytes with uptake solutions at different temperatures between 4 and 37 C. […] The incubation was stopped by aspiration of the medium, and oocytes were washed 4 times at 4 C with standard uptake solution containing 0.1% BSA.

[5] = biological target: T1, MCT8; assay: as above; type: cell-based; design: the stop codon of MCT8 was removed by performing PCR using the same sense primer as above; expressed in transfected cells; host or cells: Xenopus laevis oocytes injected with cRNA transcribed from pGEM-HeJuel; details: 0.23 ng MCT8 cRNA injected; 10 nM ligand, 2 min, 25 C

N[C@@H](Cc1cc(I)c(Oc2cc(I)c(O)c(I)c2)c(I)c1)C(=O)O [T4, 3,3′,5,5′-tetraiodothyronine]
Saturability of transport by MCT8 [1]: saturable | Transport in rat MCT1 cRNA-injected oocytes compared to control oocytes (in words) [2]: no additional uptake | inhibition at 10 µM ([3]; labeled T4 10 nm, inhibitor 10 μM, MCT8 cRNA-injected oocytes, read-out: % inhibition ± SEM of uptake of T4): 69 ± 7% | inhibition at 10 µM ([3]; read-out: % inhibition ± SEM of uptake of T3): 26 ± 7% | Inhibition of labeled T4 and T3 uptake by MCT8 (in words) ([3]; unlabeled competitor, taurocholate and probenecid data not shown): potently inhibited | Substrate specificity: transport by MCT8 (in words) ([4]; 10 nM iodothyronines or amino acids, MCT8 cRNA-injected vs uninjected oocytes): rapid uptake | Uptake into oocytes at 4 C (in words) ([4]; 10 nM, 2 min, 4 C, marked increases at 15, 25 and 37 C): significant uptake | Na+ dependence of transport by MCT8 ([4]; NaCl replaced by choline chloride): modest but consistent inhibition | Increase in initial uptake compared with uninjected oocytes ([4]; oocytes injected with 4.6 ng MCT8 cRNA, 10 nM ligand, 25 C): ~10 fold | Increase in transport at lowest amount of MCT8 cRNA [5]: 7.3 fold
